# Laboratory results from patent publication US20140335186A1, “METHODS AND COMPOSITIONS FOR ENHANCING CD4+ REGULATORY T CELLS” (Selecta Biosciences, Inc., priority 2013, published 2014).
# System: CD4+ OTII cells (CD25+Fox3p+ regulatory T cell phenotype)
# Assay: Induction of CD4+ regulatory T cells: CD4+ OTII cells transferred into SJL mice, flow cytometry of popliteal lymph nodes
# Assay type: in vivo, mouse
# Details: s.c. hind limbs on days 1 and 5, popliteal lymph nodes on day 10
# From the text: In order to monitor the determine the effect of immunosuppressant attached to synthetic nanocarriers on the development of CD4+ regulatory T cells, CD4+ T cells were purified from the transgenic mouse strain OTII using negative selection by magnetic-activated cell sorting (MACS). OTII mice express a T cell receptor specific for the chicken ovalbumin peptide OVA323-339. Following isolation, 4×10^6 CD4+ OTII cells were transferred into SJL mice congenically expressing the pan-leukocyte marker CD45.1 (Ptprc^a) (SJL-Prprc^a/BoyAiTac).
# On day 10, 5 days following the second administration of the indicated treatment, the animlas were sacrified and the popliteal lymph nodes that drain the site of injection were harvested to analyze developmental status and quantify the CD4+ OTII cells that had been transferred into the SJL mice by flow cytometry.
substance,measurement,value
"fOPII.323: free chicken ovalbumin peptide OVA323-339 (KISQAVHAAHAEINEAG; UniProt P01012 323-339, looked up, fragment)","proportion of transferred OTII cells with regulatory T cell phenotype (CD25+Fox3p+), FIG. 1",detectable but not statisitically significant increase
